These are literature values, as cited in US7834015B2, “Pyrrolo[1,2-a] pyrazin-1(2H)-one and pyrrolo[1,2-d][1,2,4]triazin-1(2H)-one derivatives as inhibitors of poly(ADP-ribose)polymerase (PARP)” (Instituto di Ricerche Di Biologia Molecolare P. Angeletti …, priority 2006, dated 2010).

The data set deals with ischemia and reperfusion of the heart or skeletal muscle. As to conditions: rabbits.

For `NC(=O)c1cccc(N)c1` [3-amino-benzamide], the “reductions in infarct size in the heart” value (single injection 10 mg/kg, one minute before occlusion or one minute before reperfusion) is listed as 32-42%.
Turning to `Oc1cccc2c(O)nccc12` [1,5-dihydroxyisoquinoline], where the note is “single injection 1 mg/kg”, the reduced infarct size is 38-48%.
